Test results: article PMC12669040, “Tumour-specific STING agonist synthesis via a two-component prodrug system” (Nature Chemistry, 2025)
Several values for one entry are separate records, joined by “and”; a condition that tells them apart may be missing. Equal values may be shown once.

Tests used:
[1] = Colorimetric alkylation rate constant assay with thiol N1; assay type: physicochemical; conditions: for remaining [A]: N1 from calibration curve (N1 in uM); for remaining [A] / remaining [B]: in µM
[2] = Colorimetric alkylation rate constant assay with TNB^2− as non-specific thiol; assay type: physicochemical; parameters: second-order: unit not given here; conditions: for remaining [B]: in µM
[3] = Time 2891 sec, [B]0 = 250, Replicates 1-3
[4] = Time 3071 sec, [B]0 = 250, Replicates 1-3
[5] = Time 3252 sec, [B]0 = 250, Replicates 1-3
[6] = Time 3433 sec, [B]0 = 250, Replicates 1-3
[7] = Time 3613 sec, [B]0 = 250, Replicates 1-3

remaining [A] ([1]; Replicate 1, time 576 sec): 47.8044
remaining [B] ([1]; Replicate 1, time 576 sec, [B]0 = 250): 193.684
remaining [A] ([1]; Replicate 1, time 606 sec): 46.4649
remaining [B] ([1]; Replicate 1, time 606 sec, [B]0 = 250): 192.345
remaining [A] ([1]; Replicate 2, time 576 sec): 30.5226
remaining [B] ([1]; Replicate 2, time 576 sec, [B]0=250): 177.381
remaining [A] ([1]; Replicate 2, time 606 sec): 29.3038
remaining [B] ([1]; Replicate 2, time 606 sec, [B]0=250): 176.162
remaining [A] ([1]; Replicate 3, time 576 sec): 37.5866
remaining [B] ([1]; Replicate 3, time 576 sec, [B]0=250): 183.039
remaining [A] ([1]; Replicate 3, time 606 sec): 36.1527
remaining [B] ([1]; Replicate 3, time 606 sec, [B]0=250): 181.605
remaining [B] ([1]; time 0 sec, [B]0 = 250, replicates 1-3): 244.616 and 236.007 and 232.398
remaining [B] ([1]; time 30 sec, [B]0 = 250, replicates 1-3): 239.016 and 232.843 and 226.134
remaining [B] ([1]; time 60 sec, [B]0 = 250, replicates 1-3): 231.981 and 229.623 and 220.975
remaining [B] ([1]; time 91 sec, [B]0 = 250, replicates 1-3): 228.545 and 226.744 and 217.517
remaining [B] ([1]; time 121 sec, [B]0 = 250, replicates 1-3): 224.298 and 223.153 and 210.771
remaining [B] ([1]; time 151 sec, [B]0 = 250, replicates 1-3): 215.18 and 221.016 and 204.96
remaining [B] ([1]; time 182 sec, [B]0 = 250, replicates 1-3): 211.366 and 218.251 and 202.608
remaining [B] ([1]; time 212 sec, [B]0 = 250, replicates 1-3): 208.552 and 215.829 and 199.773
remaining [B] ([1]; time 242 sec, [B]0 = 250, replicates 1-3): 206.279 and 213.378 and 197.222
remaining [B] ([1]; time 273 sec, [B]0 = 250, replicates 1-3): 203.276 and 211.041 and 194.671
remaining [B] ([1]; time 303 sec, [B]0 = 250, replicates 1-3): 200.625 and 209.074 and 192.148
remaining [B] ([1]; time 333 sec, [B]0 = 250, replicates 1-3): 197.649 and 207.193 and 190.108
remaining [B] ([1]; time 364 sec, [B]0 = 250, replicates 1-3): 195.376 and 205.141 and 187.925
remaining [B] ([1]; time 394 sec, [B]0 = 250, replicates 1-3): 193.158 and 203.203 and 186.139
remaining [B] ([1]; time 424 sec, [B]0 = 250, replicates 1-3): 190.588 and 201.351 and 184.155
remaining [B] ([1]; time 454 sec, [B]0 = 250, replicates 1-3): 188.694 and 199.783 and 182.426
remaining [B] ([1]; time 485 sec, [B]0 = 250, replicates 1-3): 186.908 and 198.016 and 181.378
remaining [B] ([1]; time 515 sec, [B]0 = 250, replicates 1-3): 185.014 and 196.591 and 179.79
remaining [B] ([1]; time 545 sec, [B]0 = 250, replicates 1-3): 184.094 and 195.166 and 178.713
remaining [B] ([2]; Replicate 1, 723 sec, [B]0 = 250): 246.895
remaining [B] ([2]; Replicate 1, 903 sec, [B]0 = 250): 246.517
remaining [B] ([2]; Replicate 1, 1084 sec, [B]0 = 250): 246.063
remaining [B] ([2]; Replicate 1, 1265 sec, [B]0 = 250): 245.71
remaining [B] ([2]; Replicate 1, 1445 sec, [B]0 = 250): 245.231
remaining [B] ([2]; Replicate 1, 1626 sec, [B]0 = 250): 244.866
remaining [B] ([2]; Replicate 1, 1806 sec, [B]0 = 250): 244.513
remaining [B] ([2]; Replicate 1, 1988 sec, [B]0 = 250): 243.833
remaining [B] ([2]; Replicate 1, 2168 sec, [B]0 = 250): 243.543
remaining [B] ([2]; Replicate 1, 2349 sec, [B]0 = 250): 242.9
remaining [B] ([2]; Replicate 1, 2530 sec, [B]0 = 250): 242.61
remaining [B] ([2]; Replicate 1, 2710 sec, [B]0 = 250): 242.169
remaining [B] ([2]; Replicate 2, 542 sec, [B]0=250): 248.022
remaining [B] ([2]; Replicate 2, 723 sec, [B]0=250): 247.165
remaining [B] ([2]; Replicate 2, 903 sec, [B]0=250): 246.925
remaining [B] ([2]; Replicate 2, 1084 sec, [B]0=250): 246.522
remaining [B] ([2]; Replicate 2, 1265 sec, [B]0=250): 246.258
remaining [B] ([2]; Replicate 2, 1445 sec, [B]0=250): 245.88
remaining [B] ([2]; Replicate 2, 1626 sec, [B]0=250): 245.262
remaining [B] ([2]; Replicate 2, 1806 sec, [B]0=250): 245.073
remaining [B] ([2]; Replicate 2, 1988 sec, [B]0=250): 244.304
remaining [B] ([2]; Replicate 2, 2168 sec, [B]0=250): 244.191
remaining [B] ([2]; Replicate 2, 2349 sec, [B]0=250): 243.649
remaining [B] ([2]; Replicate 2, 2530 sec, [B]0=250): 243.511
remaining [B] ([2]; Replicate 2, 2710 sec, [B]0=250): 243.032
remaining [B] ([2]; Replicate 3, 723 sec, [B]0=250): 248.495
remaining [B] ([2]; Replicate 3, 903 sec, [B]0=250): 247.89
remaining [B] ([2]; Replicate 3, 1084 sec, [B]0=250): 247.373
remaining [B] ([2]; Replicate 3, 1265 sec, [B]0=250): 246.731
remaining [B] ([2]; Replicate 3, 1445 sec, [B]0=250): 246.365
remaining [B] ([2]; Replicate 3, 1626 sec, [B]0=250): 245.899
remaining [B] ([2]; Replicate 3, 1806 sec, [B]0=250): 245.521
remaining [B] ([2]; Replicate 3, 1988 sec, [B]0=250): 245.08
remaining [B] ([2]; Replicate 3, 2168 sec, [B]0=250): 244.563
remaining [B] ([2]; Replicate 3, 2349 sec, [B]0=250): 244.16
remaining [B] ([2]; Replicate 3, 2530 sec, [B]0=250): 243.744
remaining [B] ([2]; Replicate 3, 2710 sec, [B]0=250): 243.505
remaining [B] [2, 3]: 243.089 and 241.779 and 242.654
remaining [B] [2, 4]: 242.547 and 241.413 and 242.377
remaining [B] [2, 5]: 242.194 and 241.111 and 242.036
remaining [B] [2, 6]: 241.728 and 240.556 and 241.482
remaining [B] [2, 7]: 241.426
Structure (SMILES): C=CS(=O)(=O)Nc1cc2cc(C(=O)CCC(=O)O)sc2cc1OC [Compound E1]
second-order ([1]; Replicate 1, time 576 sec, second-order plot value): 0.003586
second-order ([1]; Replicate 1, time 606 sec, second-order plot value): 0.003734
second-order ([1]; Replicate 2, time 576 sec, second-order plot value): 0.005955
second-order ([1]; Replicate 2, time 606 sec, second-order plot value): 0.006185
second-order ([1]; Replicate 3, time 576 sec, second-order plot value): 0.00489
second-order ([1]; Replicate 3, time 606 sec, second-order plot value): 0.005103
second-order ([1]; time 0 sec, replicates 1-3): 0.000777 and 0.0002138 and 0.0005945
second-order ([1]; time 30 sec, replicates 1-3): 0.001109 and 0.0004543 and 0.0007469
second-order ([1]; time 60 sec, replicates 1-3): 0.00141 and 0.0007862 and 0.0009101
second-order ([1]; time 91 sec, replicates 1-3): 0.001628 and 0.0009622 and 0.001063
second-order ([1]; time 121 sec, replicates 1-3): 0.002097 and 0.001194 and 0.001265
second-order ([1]; time 151 sec, replicates 1-3): 0.002555 and 0.001754 and 0.001392
second-order ([1]; time 182 sec, replicates 1-3): 0.002758 and 0.002017 and 0.001562
second-order ([1]; time 212 sec, replicates 1-3): 0.003017 and 0.002225 and 0.001719
second-order ([1]; time 242 sec, replicates 1-3): 0.003266 and 0.002402 and 0.001885
second-order ([1]; time 273 sec, replicates 1-3): 0.003532 and 0.002649 and 0.002052
second-order ([1]; time 303 sec, replicates 1-3): 0.003812 and 0.002882 and 0.002197
second-order ([1]; time 333 sec, replicates 1-3): 0.004053 and 0.00316 and 0.002343
second-order ([1]; time 364 sec, replicates 1-3): 0.004327 and 0.003387 and 0.002508
second-order ([1]; time 394 sec, replicates 1-3): 0.004565 and 0.003621 and 0.002671
second-order ([1]; time 424 sec, replicates 1-3): 0.004845 and 0.003909 and 0.002833
second-order ([1]; time 454 sec, replicates 1-3): 0.005104 and 0.004135 and 0.002976
second-order ([1]; time 485 sec, replicates 1-3): 0.005268 and 0.00436 and 0.003143
second-order ([1]; time 515 sec, replicates 1-3): 0.005529 and 0.004611 and 0.003284
second-order ([1]; time 545 sec, replicates 1-3): 0.005715 and 0.004739 and 0.003429
second-order [2, 3]: 0.0003098 and 0.0002905 and 0.000349
second-order [2, 4]: 0.0003222 and 0.0003146 and 0.0003655
second-order [2, 5]: 0.0003374 and 0.0003303 and 0.0003793
second-order [2, 6]: 0.0003624 and 0.0003513 and 0.0004046
second-order [2, 7]: 0.0003733 and 0.000365 and 0.0004313
second-order ([2]; Time 3794 sec, [B]0 = 250, Replicates 1-3): 0.0003951 and 0.0003787 and 0.000436
second-order ([2]; Time 3974 sec, [B]0 = 250, Replicates 1-3): 0.0004043 and 0.0004098 and 0.0004713
second-order ([2]; Time 4155 sec, [B]0 = 250, Replicates 1-3): 0.0004287 and 0.0004139 and 0.0004754
second-order ([2]; Time 4336 sec, [B]0 = 250, Replicates 1-3): 0.0004451 and 0.0004267 and 0.000504
second-order ([2]; Time 4516 sec, [B]0 = 250, Replicates 1-3): 0.0004586 and 0.0004477 and 0.0005214
second-order ([2]; Time 4697 sec, [B]0 = 250, Replicates 1-3): 0.000471 and 0.0004671 and 0.0005431
second-order ([2]; Time 4878 sec, [B]0 = 250, Replicates 1-3): 0.000487 and 0.0004831 and 0.0005503
second-order ([2]; Time 5058 sec, [B]0 = 250, Replicates 1-3): 0.0005055 and 0.0005004 and 0.0005698
second-order ([2]; Time 5239 sec, [B]0 = 250, Replicates 1-3): 0.0005247 and 0.0005046 and 0.0005919
second-order ([2]; Time 5419 sec, [B]0 = 250, Replicates 1-3): 0.000547 and 0.000531 and 0.0006054
second-order ([2]; Time 5600 sec, [B]0 = 250, Replicates 1-3): 0.0005568 and 0.0005491 and 0.0006296
second-order ([2]; Time 5781 sec, [B]0 = 250, Replicates 1-3): 0.0005744 and 0.0005674 and 0.0006477
second-order ([2]; Time 5961 sec, [B]0 = 250, Replicates 1-3): 0.0005953 and 0.0005931 and 0.0006685
